Measurements reported in publication PMC11252453 (Acta Pharmaceutica Sinica. B, 2024).

Assays:
[1] = system: SARS-CoV-2 PLpro mediated IFNB expression; type: cell-based
Vero E6 cells = conditions: African green monkey
SARS-CoV-2 PLpro = SARS-CoV-2 PLpro (Severe acute respiratory syndrome coronavirus 2, UniProt P0DTD1); assay: cell-based

## CCC(C(=O)Nc1cc(NC2COC2)ccc1C)n1cc(Br)cc2nc(SCc3ccc(F)cc3)nc1-2 (stereo not shown) [Compound 45]
[1]
  IFNB mRNA expression: fully restore IFNB expression

## CCC(C(=O)Nc1cc(NC2CCNCC2)ccc1C)n1cc(Cl)cc2nc(SCc3ccc(F)cc3)nc1-2 (stereo not shown) [Compound 39]
[1]
  IFNB mRNA expression: fully restore IFNB expression
Vero E6 cells
  CC50: > 50 µM

## CCC(C(=O)Nc1cc(NC2CCNCC2)ccc1C)n1cc(Br)cc2nc(SCc3ccc(F)cc3)nc1-2 (stereo not shown) [Compound 44]
SARS-CoV-2 PLpro
  EC50: 3.81 ± 0.59 µM
